In patent US20230100707A1, “MELANOMA THERAPEUTICS” (ESCAPE THERAPEUTICS, INC., priority 2020, published 2023):
Where no end group is shown, it is not given here.

Assays:
[1] = test system: Human Primary Melanocytes; assay: Trypan blue dye exclusion toxicity on human primary melanocytes; type: cell-based; settings: for cell death: 1 millimolar, 72 hours of incubation, melanocytes; for % toxicity: trypan blue
Method: (§1) Cellular toxicity was measured using a trypan blue dye exclusion assay. Cells were cultured in 6-well plates at a density of 4×10^5 cells per well. […] After 24 hours, an aliquot was taken and cells counted using a hemacytometer. Cytotoxicity was measured according to the following formula: […]
(§2) The same procedure was repeated after 3 and 6 days of incubation.

Human Fibroblasts = assay: Trypan blue dye exclusion toxicity on human fibroblasts; type: cell-based; settings: for cell death: 1 millimolar, 72 hours of incubation, fibroblasts; for % toxicity: trypan blue
Method: as §1, §2

mouse melanoma cells = settings: for cell death / cytotoxicity: 3 millimolar, incubation for 3 days, MTT (FIG. 4); for cytotoxicity to mouse melanoma (figure): treated with 3 millimolar, figure vs untreated
Method: (§3) Human and mouse melanoma cell lines as wells as Fibroblasts were cultured using DMEM with L-glutamine, 10 percent FBS and 1 percent P/S (Thermo Fisher Scientific, NY). Human melanocytes were cultured using medium 254 (Thermo Fisher Scientific, NY) and incubated at 37 degrees Celsius in a humidified 5 percent CO2 chamber.
(§4) Proliferation rates were determined using a TACS® MTT Cell Proliferation Kit (R&D Systems, Minneapolis, Minn.). Cells were seeded at 2.5×10 ^4 per well in 96-well plates in a humidified atmosphere with 5 percent CO2 at 37 degrees Celsius. Twenty-four hours later, oligopeptides or hydroquinone were added to the corresponding wells at varying concentrations (0.03, 0.1, 0.3, 1, and 3 millimolar (mM)), and cultures were incubated for 72 hours. The remainder of the procedure was performed following the manufacturer's protocol.

[2] = test system: human metastatic melanoma line harboring the V600E BRAF mutation; assay: MTT cell proliferation and viability assay, human melanoma cells
Method: as §3, §4

[3] = test system: human epidermal keratinocytes; assay: Cytotoxicity towards human epidermal keratinocytes (figures); type: cell-based; settings: normal human epidermal keratinocytes, 3 millimolar in figure
Method: Human neonatal epidermal keratinocytes were cultured in Epilife media containing 60 μM of calcium chloride (Thermo Fisher Scientific, NY). All cell cultures were incubated in a humidified chamber at 37 degrees Celsius and 5 percent CO2.
The figures show human epidermal keratinocytes with 3 millimolar P5, human epidermal keratinocytes with 3 millimolar P14, and human epidermal keratinocytes with 3 millimolar HQ.

Row | Compound | cell death [1] [%] | % toxicity ([1]; Day 1, 30 μM) [%] | % toxicity ([1]; Day 1, 100 μM) [%] | % toxicity ([1]; Day 1, 300 μM) [%] | % toxicity ([1]; Day 1, 1000 μM) [%] | % toxicity ([1]; Day 3, 30 μM) [%] | % toxicity ([1]; Day 3, 100 μM) [%] | % toxicity ([1]; Day 3, 300 μM) [%] | % toxicity ([1]; Day 3, 1000 μM) [%] | % toxicity ([1]; Day 6, 30 μM) [%] | % toxicity ([1]; Day 6, 100 μM) [%] | % toxicity ([1]; Day 6, 300 μM) [%] | % toxicity ([1]; Day 6, 1000 μM) [%] | cell death (Human Fibroblasts) [%] | % toxicity (Human Fibroblasts; Day 1, 30 μM) [%] | % toxicity (Human Fibroblasts; Day 1, 100 μM) [%] | % toxicity (Human Fibroblasts; Day 1, 300 μM) [%] | % toxicity (Human Fibroblasts; Day 1, 1000 μM) [%] | % toxicity (Human Fibroblasts; Day 3, 30 μM) [%] | cytotoxic effects towards keratinocytes [3] | also measured
1 | Oc1ccc(O)cc1 [HQ, Hydroquinone, reference compound] | 100 | 41 | 98 | 100 | 100 | 53 | 100 | 100 | 100 | 60 | 100 | 100 | 100 | 100 | 3 | 17 | 27 | 100 | 9 | indiscriminate cytotoxicity | % toxicity ([1]; Day 1, 10 μM): 27%; % toxicity ([1]; Day 3, 10 μM): 29%; % toxicity ([1]; Day 6, 10 μM): 35%; % toxicity (Human Fibroblasts; Day 1, 3000 μM): 100%; % toxicity (Human Fibroblasts; Day 3, 100 μM): 20%; % toxicity (Human Fibroblasts; Day 3, 300 μM): 44%; % toxicity (Human Fibroblasts; Day 3, 1000 μM): 100%; % toxicity (Human Fibroblasts; Day 3, 3000 μM): 100%; % toxicity (Human Fibroblasts; Day 6, 30 μM): 15%; % toxicity (Human Fibroblasts; Day 6, 100 μM): 30%; % toxicity (Human Fibroblasts; Day 6, 300 μM): 54%; % toxicity (Human Fibroblasts; Day 6, 1000 μM): 100%; % toxicity (Human Fibroblasts; Day 6, 3000 μM): 100%; cell death / cytotoxicity (mouse melanoma cells): 90%; cytotoxicity ([2]; human, 72 h, 1 mM): ~80%
2 | CC(C)CC(NC(=O)C1CCCN1)C(=O)NCC(=O)O (centres unmarked) [P5, PLG] | 9 | 0.1 | 0.1 | 2.2 | 7.8 | 0.1 | 0.1 | 2.4 | 8.7 | 0.1 | 0.1 | 2.7 | 9.3 | 3 | 0.1 | 0.1 | 0.1 | 2.1 | 0.1 | very little to no cytotoxic effects | % toxicity ([1]; Day 1, 3000 μM): 13.3%; % toxicity ([1]; Day 3, 3000 μM): 13.5%; % toxicity ([1]; Day 6, 3000 μM): 14.5%; % toxicity (Human Fibroblasts; Day 1, 10 μM): 0.1%; % toxicity (Human Fibroblasts; Day 3, 10 μM): 0.1%; % toxicity (Human Fibroblasts; Day 3, 100 μM): 0.1%; % toxicity (Human Fibroblasts; Day 3, 300 μM): 0.5%; % toxicity (Human Fibroblasts; Day 3, 1000 μM): 2.6%; % toxicity (Human Fibroblasts; Day 6, 10 μM): 0.1%; % toxicity (Human Fibroblasts; Day 6, 30 μM): 0.1%; % toxicity (Human Fibroblasts; Day 6, 100 μM): 0.1%; % toxicity (Human Fibroblasts; Day 6, 300 μM): 1.1%; % toxicity (Human Fibroblasts; Day 6, 1000 μM): 3.9%; cytotoxicity to mouse melanoma (figure) (mouse melanoma cells): selectively cytotoxic
3 | RRFVLL [P14, RRFVLL] | – | – | – | – | – | – | – | – | – | – | – | – | – | – | – | – | – | – | – | very little to no cytotoxic effects | cell death / cytotoxicity (mouse melanoma cells): 49%; cytotoxicity to mouse melanoma (figure) (mouse melanoma cells): selectively cytotoxic; cytotoxicity ([2]; 1 millimolar, human melanoma cells, MTT (FIG. 5)): ~36%; cytotoxicity to human melanoma (figure) ([2]; treated with 3 millimolar, figure vs untreated): selectively cytotoxic
